According to ChEMBL document CHEMBL3217459, “3-Diarylethyne quinazolinones: a new class of senescence inducers” (Medchemcomm, 2013):
The source made the active and inactive calls. The calls are words filed in the database; no cut-off is given here.

Experiments:
[1] = Cytotoxicity against human MCF10A cells assessed as cell viability after 48 hrs by MTT assay; format: cell-based; conditions: MCF-10A
[2] = system: MCF7 (Homo sapiens); experiment: Induction of senescence in human MCF7 cells assessed as increase in p16 expression at 4 uM after 24 hrs by Western blot analysis
[3] = biological target: Telomerase reverse transcriptase (Homo sapiens) (UniProt O14746); experiment: Inhibition of telomerase activity in human A549 cells at 4 uM after 24 hrs by TRAP eze XL telomerase assay
[4] = Cytotoxicity against human MIAPaCa2 cells assessed as cell viability after 48 hrs by MTT assay; format: functional, cell-based; conditions: MIA PaCa-2, 48 h
[5] = system: MCF7; experiment: Induction of DNA damage in human MCF7 cells assessed as decrease in TRF2 level measured at 4 uM after 24 hrs by Western blot analysis; format: functional, cell-based
[6] = biological target: Telomerase reverse transcriptase (Homo sapiens) (UniProt O14746); experiment: Inhibition of telomerase activity in human MCF7 cells assessed as un-repairable DNA damage at 4 uM after 24 hrs; format: cell-based
[7] = system: MCF7; experiment: Cell cycle arrest in human MCF7 cells assessed as accumulation at S phase at 4 uM after 24 hrs using propidium iodide staining by FACS analysis (reference value: 11%); format: functional
[8] = system: MCF7; experiment: Induction of senescence in human MCF7 cells expressing wild type p53 at 4 uM after 24 hrs by Western blot analysis; format: functional, cell-based
[9] = system: MDA-MB-231; experiment: Induction of senescence in human MDA-MB-231 cells expressing mutant p53 at 4 uM after 24 hrs by Western blot analysis; format: functional, cell-based
[10] = system: MDA-MB-231; experiment: Cytotoxicity against human MDA-MB-231 cells assessed as cell viability after 48 hrs by MTT assay; format: functional, cell-based; conditions: MDA-MB-231, 48 h
[11] = system: A549; experiment: Cytotoxicity against human A549 cells assessed as cell viability after 48 hrs by MTT assay; format: functional, cell-based; conditions: A549, 48 h
[12] = system: MCF7; experiment: Induction of DNA damage in human MCF7 cells assessed as increase in TRF1 level measured at 4 uM after 24 hrs by Western blot analysis; format: functional, cell-based
[13] = system: HCT-116; experiment: Induction of senescence in human HCT116 cells assessed as increase in p21 expression at 4 uM after 24 hrs by Western blot analysis; format: functional, cell-based
[14] = system: MCF7; experiment: Induction of senescence in human MCF7 cells assessed as decrease in SKP2 expression at 4 uM after 24 hrs by Western blot analysis; format: functional, cell-based
[15] = system: MCF7; experiment: Induction of senescence in human MCF7 cells assessed as increase in p21 expression at 4 uM after 24 hrs by Western blot analysis; format: functional, cell-based
[16] = system: MCF7; experiment: Induction of DNA damage in human MCF7 cells assessed as increase in gamma H2AX level measured at 4 uM after 24 hrs by Western blot analysis; format: functional, cell-based
[17] = system: MCF7; experiment: Induction of senescence in human MCF7 cells assessed as increase in p16 expression at 4 uM after 24 hrs by Western blot analysis; format: functional, cell-based
[18] = system: COLO 205; experiment: Cytotoxicity against human COLO205 cells assessed as cell viability after 48 hrs by MTT assay; format: functional, cell-based; conditions: COLO 205, 48 h
[19] = system: MCF7; experiment: Cytotoxicity against human MCF7 cells assessed as cell viability at 4 uM after 48 hrs by MTT assay; format: functional
[20] = system: MCF7; experiment: Induction of senescence in human MCF7 cells assessed as increase in p53 expression at 4 uM after 24 hrs by Western blot analysis; format: functional, cell-based
[21] = system: SW116; experiment: Induction of senescence in human SW116 cells assessed as increase in p21 expression at 4 uM after 24 hrs by Western blot analysis; format: functional, cell-based
[22] = system: MCF7; experiment: Cell cycle arrest in human MCF7 cells assessed as accumulation at G1 phase at 4 uM after 24 hrs using propidium iodide staining by FACS analysis (reference value: 70%); format: functional
[23] = system: MCF7; experiment: Induction of DNA damage in human MCF7 cells assessed as increase in POT1 level measured at 4 uM after 24 hrs by Western blot analysis; format: functional, cell-based
[24] = system: MCF7; experiment: Induction of senescence in human MCF7 cells assessed as blue colotation and adopted a flattened morphology with spread out cytoplasm at 4 uM after 72 hrs by SA-beta-gal assay; format: functional, cell-based
[25] = system: MCF7; experiment: Cytotoxicity against human MCF7 cells assessed as cell viability after 48 hrs by MTT assay; format: functional, cell-based; conditions: MCF7, 48 h
[26] = system: HCT-116; experiment: Induction of senescence in human HCT116 cells assessed as increase in p16 expression at 4 uM after 24 hrs by Western blot analysis; format: functional, cell-based
[27] = system: MCF7; experiment: Cytotoxicity against human MCF7 cells assessed as cell viability at 2 uM after 48 hrs by MTT assay; format: functional
[28] = system: MCF7; experiment: Cell cycle arrest in human MCF7 cells assessed as accumulation at G2/M phase at 4 uM after 24 hrs using propidium iodide staining by FACS analysis (reference value: 19%); format: functional

Chain of Telomerase reverse transcriptase (Homo sapiens) (O14746 whole entry): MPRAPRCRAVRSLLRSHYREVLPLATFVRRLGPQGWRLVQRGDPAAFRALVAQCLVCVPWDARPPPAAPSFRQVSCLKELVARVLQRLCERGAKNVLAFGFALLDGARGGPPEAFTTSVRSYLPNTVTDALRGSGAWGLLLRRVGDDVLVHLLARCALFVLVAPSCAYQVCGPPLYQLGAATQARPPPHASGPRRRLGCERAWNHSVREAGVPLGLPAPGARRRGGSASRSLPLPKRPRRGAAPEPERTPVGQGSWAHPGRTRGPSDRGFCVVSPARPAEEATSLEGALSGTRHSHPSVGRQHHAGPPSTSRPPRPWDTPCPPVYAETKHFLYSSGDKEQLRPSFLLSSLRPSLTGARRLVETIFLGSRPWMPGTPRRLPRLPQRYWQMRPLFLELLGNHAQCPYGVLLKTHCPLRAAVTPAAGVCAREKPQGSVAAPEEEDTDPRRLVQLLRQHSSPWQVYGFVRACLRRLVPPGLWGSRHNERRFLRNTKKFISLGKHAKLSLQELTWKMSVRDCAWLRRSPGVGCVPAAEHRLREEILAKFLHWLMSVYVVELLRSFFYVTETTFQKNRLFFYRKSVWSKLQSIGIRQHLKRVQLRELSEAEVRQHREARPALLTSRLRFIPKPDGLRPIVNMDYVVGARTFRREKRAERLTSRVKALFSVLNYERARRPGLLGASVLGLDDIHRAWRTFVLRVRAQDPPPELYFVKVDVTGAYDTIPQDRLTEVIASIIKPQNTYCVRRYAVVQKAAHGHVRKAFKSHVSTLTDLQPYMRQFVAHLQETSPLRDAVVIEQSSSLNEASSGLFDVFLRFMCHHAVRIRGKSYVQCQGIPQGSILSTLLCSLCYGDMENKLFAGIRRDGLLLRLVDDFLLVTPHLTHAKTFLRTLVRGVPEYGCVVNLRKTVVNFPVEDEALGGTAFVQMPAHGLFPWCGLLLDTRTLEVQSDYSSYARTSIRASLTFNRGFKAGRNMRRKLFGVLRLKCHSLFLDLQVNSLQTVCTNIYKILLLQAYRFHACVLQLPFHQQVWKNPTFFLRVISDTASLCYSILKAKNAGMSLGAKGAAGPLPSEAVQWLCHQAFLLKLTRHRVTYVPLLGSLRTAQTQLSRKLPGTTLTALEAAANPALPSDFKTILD

Cc1cc(C#Cc2ccc(C(C)(C)C)cc2)ccc1-n1c(/C=C/c2c(Cl)cccc2Cl)nc2ccccc2c1=O
IC50 [1]: 15 µM | Activity [2]: Active | inhibition [3]: Active | IC50 [4]: 5.29 µM | inhibition [5]: Active | inhibition [6]: Active | Activity [7]: 2% | Activity [8]: Active | Activity [9]: inactive | IC50 [10]: 5.44 µM | IC50 [11]: 5.6 µM | Activity [12]: Active | Activity [13]: Active | inhibition [14]: Active | Activity [15]: Active | Activity [16]: Active | Activity [17]: Active | IC50 [18]: 4.85 µM | OD [19]: 0.39 | Activity [20]: Active | Activity [21]: Active | Activity [22]: 93% | Activity [23]: Active | Activity [24]: Active | IC50 [25]: 2.27 µM | Activity [26]: Active | OD [27]: 0.77 | Activity [28]: 5%

COc1cc(/C=C/c2nc3ccccc3c(=O)n2-c2ccc(C#Cc3ccccc3)cc2C)cc(OC)c1OC
IC50 [1]: 8 µM | Activity [2]: Active | IC50 [4]: 6.01 µM | inhibition [5]: Active | inhibition [6]: Active | Activity [7]: 5% | IC50 [10]: 5.56 µM | IC50 [11]: 6.54 µM | Activity [12]: Active | Activity [13]: Active | inhibition [14]: Active | Activity [15]: Active | Activity [16]: Active | Activity [17]: Active | IC50 [18]: 6.24 µM | OD [19]: 0.27 | Activity [20]: Active | Activity [21]: Active | Activity [22]: 90% | Activity [23]: Active | IC50 [25]: 2.46 µM | Activity [26]: Active | OD [27]: 0.47 | Activity [28]: 5%

Cc1cc(C#Cc2ccc(C(C)(C)C)cc2)ccc1-n1c(/C=C/c2ccnc3ccccc23)nc2ccccc2c1=O
IC50 [1]: 28 µM | Activity [2]: Active | inhibition [3]: Active | IC50 [4]: 5.21 µM | inhibition [5]: Active | inhibition [6]: Active | Activity [7]: 2% | Activity [8]: Active | Activity [9]: inactive | IC50 [10]: 5.44 µM | IC50 [11]: 5.87 µM | Activity [12]: Active | Activity [13]: Active | inhibition [14]: Active | Activity [15]: Active | Activity [16]: Active | Activity [17]: Active | IC50 [18]: 5.44 µM | OD [19]: 0.24 | Activity [20]: Active | Activity [21]: Active | Activity [22]: 94% | Activity [23]: Active | Activity [24]: Active | IC50 [25]: 2.45 µM | Activity [26]: Active | OD [27]: 0.59 | Activity [28]: 4%

COc1ccc(/C=C/c2nc3ccccc3c(=O)n2-c2ccc(C#Cc3ccc(C(C)(C)C)cc3)cc2C)cc1O
IC50 [1]: 12 µM | Activity [2]: Active | IC50 [4]: 6.8 µM | inhibition [5]: Active | inhibition [6]: Active | Activity [7]: 4% | IC50 [10]: 5.69 µM | IC50 [11]: 5.74 µM | Activity [12]: Active | Activity [13]: Active | inhibition [14]: Active | Activity [15]: Active | Activity [16]: Active | Activity [17]: Active | IC50 [18]: 5.19 µM | OD [19]: 0.27 | Activity [20]: Active | Activity [21]: Active | Activity [22]: 91% | Activity [23]: Active | IC50 [25]: 3.88 µM | Activity [26]: Active | OD [27]: 0.84 | Activity [28]: 5%

COc1ccc(/C=C/c2nc3ccccc3c(=O)n2-c2ccc(C#Cc3ccc(C(C)(C)C)cc3)cc2C)cc1OC
IC50 [1]: 13 µM | Activity [2]: Active | IC50 [4]: 5.89 µM | inhibition [5]: Active | inhibition [6]: Active | Activity [7]: 3% | IC50 [10]: 5.84 µM | IC50 [11]: 6.15 µM | Activity [12]: Active | Activity [13]: Active | inhibition [14]: Active | Activity [15]: Active | Activity [16]: Active | Activity [17]: Active | IC50 [18]: 5.68 µM | OD [19]: 0.27 | Activity [20]: Active | Activity [21]: Active | Activity [22]: 91% | Activity [23]: Active | IC50 [25]: 2.72 µM | Activity [26]: Active | OD [27]: 0.41 | Activity [28]: 6%

COc1cccc2c1C(=O)c1c(O)c3c(c(O)c1C2=O)C[C@@](O)(C(=O)CO)C[C@@H]3O[C@H]1C[C@H](N)[C@H](O)[C@H](C)O1 [DOXORUBICIN]
IC50 [1]: 31 µM | Activity [2]: Active | IC50 [4]: 0.14 µM | Activity [7]: 2% | Activity [8]: Active | Activity [9]: inactive | IC50 [10]: 0.16 µM | IC50 [11]: 0.73 µM | Activity [13]: Active | inhibition [14]: Active | Activity [15]: Active | Activity [17]: Active | IC50 [18]: 0.37 µM | Activity [20]: Active | Activity [21]: Active | Activity [22]: 82% | IC50 [25]: 0.1 µM | Activity [26]: Active | Activity [28]: 16%
